From PMC3038857, “Using Nuclear Receptor Activity to Stratify Hepatocarcinogens” (PLoS ONE, 2011)
Like-named read-outs stand apart in the source and are kept apart here.

Experiments:
[1] = molecular target: T1, RXRa (RXRA) (Homo sapiens, UniProt P19793); test: NCGC_RXRa_Agonist: GAL4 BLAM Reporter gene assay: RXRa; format: cell-based; settings: agonist mode
T1 sequence (P19793 227-462 limits assumed): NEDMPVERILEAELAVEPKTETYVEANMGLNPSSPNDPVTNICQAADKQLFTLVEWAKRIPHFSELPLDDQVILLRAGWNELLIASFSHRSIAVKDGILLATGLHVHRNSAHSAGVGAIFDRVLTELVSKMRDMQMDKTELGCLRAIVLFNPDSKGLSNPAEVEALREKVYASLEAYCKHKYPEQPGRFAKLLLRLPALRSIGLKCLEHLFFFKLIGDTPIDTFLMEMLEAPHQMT
Experimental: (§1) These assays measure binding constants and enzyme inhibition values for nuclear receptors. The targets include [drawing 67] , [drawing 68] , [drawing 69] , [drawing 70] , [drawing 71] , [drawing 72] , [drawing 73] , [drawing 74] , [drawing 75] and [drawing 76] . Each of the nuclear receptor targets was measured in agonist mode. Assays were run at the NIH Chemical Genomics Center (Rockville, MD).
(§2) Cell-based HTS Assays: These assays measuring binding constants and enzyme inhibition values for nuclear receptors. The targets include AR, ER, FXR, LXR, PPARα, PPARδ, PPARγ, RXRα, RXRβ and PXR. Each of the nuclear receptor targets was measured in both agonist and antagonist mode, but the antagonist data is still undergoing analysis due to possible interference between cytotoxicity and assay activity, so antagonist mode data were not used in the present analysis. Assays were run at the NIH Chemical Genomics Center (Rockville, MD) as part of the Tox21 collaboration. […] The R^2 was required to be ≥0.5. Values where only the highest concentration exceeded 50% activity were excluded to eliminate weak or false positives. Detailed description of the methods, data and analysis methods for this dataset will be presented in a separate publication.

[2] = molecular target: T2, PXR (NR1I2) (Homo sapiens, UniProt O75469); test: ATG_PXRE_CIS: Factorial reporter gene assay (HepG2); format: cell-based; design: endogenous in cells; host or cells: HepG2
T2 sequence (O75469 1-434): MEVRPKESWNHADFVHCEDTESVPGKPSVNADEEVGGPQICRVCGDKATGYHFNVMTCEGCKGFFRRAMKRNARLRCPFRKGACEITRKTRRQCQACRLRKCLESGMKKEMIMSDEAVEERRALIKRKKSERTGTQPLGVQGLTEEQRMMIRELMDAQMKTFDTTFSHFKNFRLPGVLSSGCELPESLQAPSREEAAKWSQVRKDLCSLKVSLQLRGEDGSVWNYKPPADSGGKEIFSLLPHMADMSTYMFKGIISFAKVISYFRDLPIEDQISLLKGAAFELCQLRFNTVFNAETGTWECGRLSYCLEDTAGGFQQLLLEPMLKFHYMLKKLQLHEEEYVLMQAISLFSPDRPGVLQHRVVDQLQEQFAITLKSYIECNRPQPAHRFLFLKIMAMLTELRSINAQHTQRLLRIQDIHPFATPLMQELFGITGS
Procedure, shortened: (§3)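 Seven concentrations per chemical, three-fold dilutions down from the MTC, were tested in HepG2 hepatoma cells. Those cells carried a multiple reporter transcription unit library, read either as cis transcription-factor-site reporters or as a trans mammalian one-hybrid panel for nuclear receptors.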

[3] = tested on: ABCB11; test: CLZD_ABCB11: Change in expression of ABCB11 (primary human hepatocytes); format: cell-based; settings: 24 hr
Experimental: (§4) This is a collection of multiplexed gene expression assays focused on Phase I and II xenobiotic metabolizing enzymes and transporters. Human primary cell cultures were treated with chemicals at 5 concentrations (0.004-40 [drawing 42] M) for 6, 24 and 48 hr. Concentration- and time-response profiles of chemicals were measured by the expression of key nuclear receptor target genes, activities of CYP1A enzymes (EROD), and cell morphology. Fourteen gene targets were monitored by quantitative nuclease protection assay including: six representative cytochrome P-450 genes, four hepatic transporters, three Phase II conjugating enzymes, and one endogenous metabolism gene involved in cholesterol synthesis. The target genes associated with nuclear receptor pathways are as follows: [drawing 43] and [drawing 44] with [drawing 45]; [drawing 46] , [drawing 47] , [drawing 48] , [drawing 49] , [drawing 50] and [drawing 51] with [drawing 52]; [drawing 53] , [drawing 54] , [drawing 55] and [drawing 56] with [drawing 57]; [drawing 58] with [drawing 59]; and [drawing 60] with [drawing 61] . Assays were run in primary human hepatocyte cultures by CellzDirect Invitrogen Inc. (Durham, NC), in collaboration with EPA.
(§5) Multiplexed Gene Expression in Human Primary Hepatocytes: This is a collection of multiplexed gene expression assays focused on Phase I and II metabolic enzymes and transporters. […] Fourteen gene targets were monitored by quantitative nuclease protection assay: six representative cytochrome P450 genes, four hepatic transporters, three Phase II conjugating enzymes, and one endogenous metabolism gene involved in cholesterol synthesis. Cells were exposed at 5 concentrations (0.004-40 µM) for 6, 24 or 48 hr. Gene targets are sentinels for five nuclear receptor signaling pathways: AhR, CAR, PXR, FXR, and PPARα. All gene are associated with nuclear receptor pathways: CYP1A1 and CYP1A2 with AHR; ABCB1, ABCG2, CYP2B6, CYP2C9, CYP2C19 and UGT1A1 with CAR; CYP3A4, GSTA2, SLCO1B1 and SULT2A1 with PXR; HMGCS2 with PPARA; and ABCB11 with FXR. […] Detailed description of the methods, data and analysis methods for this dataset will be presented in a separate publication.

[4] = tested on: Rat Liver; settings: ref ToxRefDB, cited from earlier work
[5] = tested on: Rat Liver; settings: ref ToxRefDB, cited from earlier work; remark: listed apart in the source
[6] = tested on: ABCB1; test: CLZD_ABCB1: Change in expression of ABCB1 (primary human hepatocytes); format: cell-based; settings: 24 hr
Experimental: as §4, §5

[7] = tested on: Rat Liver; settings: ref ToxRefDB, cited from earlier work; remark: listed apart in the source
[8] = tested on: CYP1A2; test: CLZD_CYP1A2: Change in expression of CYP1A2 (primary human hepatocytes); format: cell-based; settings: 24 hr
Procedure, shortened: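 Five-point concentration series (0.004-40 µM) applied to primary human hepatocytes; 6/24/48 hr timepoints; transcript quantified by multiplexed nuclease protection.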

[9] = tested on: CYP2B6; test: CLZD_CYP2B6: Change in expression of CYP2B6 (primary human hepatocytes); format: cell-based; settings: 24 hr
Procedure, shortened: (§6)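 Primary human hepatocyte cultures were exposed to test chemicals at 5 concentrations (0.004-40 µM) for 6, 24 or 48 hr.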

[10] = molecular target: T3, CAR (NR1I3) (Homo sapiens, UniProt Q14994); test: ATG_PBREM_CIS: Factorial reporter gene assay (HepG2); format: cell-based; design: endogenous in cells; host or cells: HepG2
T3 sequence (Q14994 1-352): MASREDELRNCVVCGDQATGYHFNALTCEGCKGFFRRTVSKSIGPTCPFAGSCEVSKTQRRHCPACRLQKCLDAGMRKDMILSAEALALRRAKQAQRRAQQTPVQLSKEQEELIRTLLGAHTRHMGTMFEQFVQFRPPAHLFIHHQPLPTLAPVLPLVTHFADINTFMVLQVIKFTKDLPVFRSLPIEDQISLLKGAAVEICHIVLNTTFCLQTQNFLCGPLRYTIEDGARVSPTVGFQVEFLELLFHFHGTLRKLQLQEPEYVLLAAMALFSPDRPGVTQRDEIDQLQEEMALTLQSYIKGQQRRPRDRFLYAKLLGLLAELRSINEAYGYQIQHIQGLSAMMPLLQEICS
Experimental: A multiple reporter transcription unit (MRTU) library consisting of 48 transcription factor binding sites was transfected into the HepG2 human liver hepatoma cell line. In addition to the cis-acting reporter genes (CIS), a modification of the approach was used to generate a trans-system (TRANS) with a mammalian one-hybrid assay consisting of an additional 25 MRTU library reporting the activity of nuclear receptor super-family members. […] These assays were performed by Attagene Inc. (Morrisville NC) under contract to EPA.
In addition to the cis-acting reporter genes (CIS), a modification of the approach was used to generate a trans-system (TRANS) with a mammalian one-hybrid assay consisting of an additional 25 MRTU library reporting the activity of nuclear receptor super-family members. […] Chemicals were then tested in the CIS and TRANS assays at seven concentrations starting at the MTC and followed by three-fold serial dilutions. These assays were performed by Attagene Inc. (Morrisville NC) under contract to EPA. Detailed description of the methods, data and analysis methods for this dataset will be presented in a separate publication.

[11] = tested on: CYP1A1; test: CLZD_CYP1A1: Change in expression of CYP1A1 (primary human hepatocytes); format: cell-based; settings: 24 hr
Procedure, shortened: as §6

[12] = molecular target: T4, PPARG (peroxisome proliferator-activated receptor gamma) (Homo sapiens, UniProt P37231); test: ATG_PPARg_TRANS: Factorial reporter gene assay (HepG2); format: cell-based; settings: HepG2 reporter
T4 construct: expressed in transfected cells; host or cells: HepG2
T4 sequence (P37231 1-505): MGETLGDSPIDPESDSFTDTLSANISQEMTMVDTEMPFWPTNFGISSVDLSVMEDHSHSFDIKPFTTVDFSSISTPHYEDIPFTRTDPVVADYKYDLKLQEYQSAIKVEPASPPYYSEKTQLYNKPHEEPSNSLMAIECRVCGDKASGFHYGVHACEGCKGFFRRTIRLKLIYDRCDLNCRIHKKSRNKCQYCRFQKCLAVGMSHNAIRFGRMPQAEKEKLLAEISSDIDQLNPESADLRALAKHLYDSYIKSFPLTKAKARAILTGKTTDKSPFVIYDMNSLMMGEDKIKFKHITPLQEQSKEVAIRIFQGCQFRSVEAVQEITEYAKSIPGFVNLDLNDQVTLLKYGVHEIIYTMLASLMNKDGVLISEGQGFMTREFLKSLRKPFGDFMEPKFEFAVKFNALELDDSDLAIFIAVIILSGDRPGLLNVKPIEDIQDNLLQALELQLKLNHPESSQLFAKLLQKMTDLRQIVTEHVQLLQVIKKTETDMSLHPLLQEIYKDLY
Procedure, shortened: as §3

[13] = tested on: CYP3A4; test: CLZD_CYP3A4: Change in expression of CYP3A4 (primary human hepatocytes); format: cell-based; settings: 24 hr
Procedure, shortened: as §6

[14] = molecular target: T2, PXR (NR1I2); test: NVS_NR_hPXR: Human PXR Fluormone PXR (SXR) green (cell-free HTS); format: binding
Procedure, shortened: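 Cell-free biochemical binding assays; chemicals first screened at a single concentration of 25 […] M in duplicate wells. Signals normalised to same-plate solvent controls as percent of neutral control, and AC50 values came from Hill-equation fits of concentration-response curves.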

[15] = molecular target: T5, PPARg (PPARG) (Homo sapiens, UniProt P37231); test: NCGC_PPARg_Agonist: GAL4 BLAM Reporter gene assay: PPARg; format: cell-based; design: expressed in transfected cells; host or cells: HEK293; settings: agonist mode
T5 sequence (P37231 1-505): T4 sequence (P37231 1-505)
Experimental: as §1, §2

[16] = molecular target: T6, PXR Human (NR1I2) (Homo sapiens, UniProt O75469); test: NCGC_PXR_Agonist_human: GAL4 BLAM Reporter gene assay: PXR Human; format: cell-based; settings: agonist mode
T6 sequence (O75469 146-434 limits assumed): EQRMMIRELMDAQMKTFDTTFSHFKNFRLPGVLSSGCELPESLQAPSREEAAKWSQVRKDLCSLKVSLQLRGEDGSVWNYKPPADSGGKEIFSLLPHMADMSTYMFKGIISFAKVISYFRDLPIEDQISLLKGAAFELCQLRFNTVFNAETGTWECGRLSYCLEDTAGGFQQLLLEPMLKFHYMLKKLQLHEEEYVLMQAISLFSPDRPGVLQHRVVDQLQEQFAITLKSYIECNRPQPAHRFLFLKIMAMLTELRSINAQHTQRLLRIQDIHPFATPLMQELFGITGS
Procedure, shortened: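 Tox21 cell-based screens at NCGC using GAL4-fused receptor beta-lactamase reporters. Responses active only at the top concentration (above 50%) were discarded, and fits needed R^2 of at least 0.5.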

Row | Structure (SMILES) | NCGC_RXRa_Agonist [1] | CLZD_ABCB11_24 [3] | CLZD_ABCB1_24 [6] | CLZD_CYP1A2_24 [8] | CLZD_CYP2B6_24 [9] | CLZD_CYP1A1_24 [11] | CHR_Rat_Liver_3_NeoplasticLesion ([4]; chronic study, rat liver) | CHR_Rat_Liver_2_PreneoplasticLesion ([5]; chronic study, rat liver) | CHR_Rat_Liver_1_AnyLesion ([7]; chronic study, rat liver) | ATG_PPARg_TRANS [12] | ATG_PBREM_CIS ([10]; HepG2 reporter) | also measured
1 | OCCOc1ccccc1 [r243] | 4.774 | – | – | – | – | – | – | – | – | – | – | –
2 | C#CCOS(=O)OC1CCCCC1Oc1ccc(C(C)(C)C)cc1 (centres unmarked) [r259] | – | 4.813 | 5.227 | 5.07 | 5.314 | 4.821 | – | – | – | – | – | ATG_PXRE_CIS ([2]; HepG2): 6.18; CHR_Rat_Liver_3_NeoplasticLesion ([4]; rat, chronic study): 0; CHR_Rat_Liver_2_PreneoplasticLesion ([5]; rat, chronic study): 0; CHR_Rat_Liver_1_AnyLesion ([7]; rat, chronic study): 0; ATG_PBREM_CIS ([10]; HepG2): 5.854
3 | COC(=O)N(OC)c1ccccc1COc1ccn(-c2ccc(Cl)cc2)n1 [r270] | – | 5.366 | 5.275 | 6.309 | – | 6.198 | 0 | 0 | 6 | 6.119 | 5.658 | ATG_PXRE_CIS ([2]; HepG2 reporter): 5.62; CLZD_CYP3A4_24 [13]: 5.335; NVS_NR_hPXR [14]: 5.183
4 | Fc1ccc(Oc2ccnc3cc(Cl)cc(Cl)c23)cc1 [r277] | – | – | – | 5.172 | 4.999 | 5.128 | 0 | 0 | 0 | 5.18 | – | NCGC_PPARg_Agonist [15]: 5.174
5 | C=C(C)[C@H]1Cc2c(ccc3c2O[C@@H]2COc4cc(OC)c(OC)cc4[C@@H]2C3=O)O1 [r282] | – | 5.217 | 4.54 | – | 5.235 | 5.398 | 0 | 0 | 0 | – | 6.638 | NCGC_PXR_Agonist_human [16]: 4.77
6 | CS(=O)(=O)c1ccc(C(=O)C2C(=O)CCCC2=O)c([N+](=O)[O-])c1 [row 195] | 4.471 | – | – | – | – | – | – | – | – | – | – | CHR_Rat_Liver_3_NeoplasticLesion ([4]; chronic rat study, liver): 0; CHR_Rat_Liver_2_PreneoplasticLesion ([5]; chronic rat study, liver): 0; CHR_Rat_Liver_1_AnyLesion ([7]; chronic rat study, liver): 6
